11 compounds from ChEMBL document CHEMBL1133354, “5-Thienyltryptamine derivatives as serotonin 5-HT1B/1D receptor agonists: potential treatments for migraine” (Bioorg Med Chem Lett, 2000) can be followed below.

SMILES strings stand for the structures.

Assay [1] deals with 5-hydroxytryptamine receptor 1B (Homo sapiens, UniProt P28222). Description: Binding affinity for human 5-hydroxytryptamine 1B receptor.
Assay [2] addresses 5-hydroxytryptamine receptor 1D (Homo sapiens, UniProt P28221). Description: Binding affinity for human 5-hydroxytryptamine 1D receptor.

5-hydroxytryptamine receptor 1D, sequence (P28221 whole entry): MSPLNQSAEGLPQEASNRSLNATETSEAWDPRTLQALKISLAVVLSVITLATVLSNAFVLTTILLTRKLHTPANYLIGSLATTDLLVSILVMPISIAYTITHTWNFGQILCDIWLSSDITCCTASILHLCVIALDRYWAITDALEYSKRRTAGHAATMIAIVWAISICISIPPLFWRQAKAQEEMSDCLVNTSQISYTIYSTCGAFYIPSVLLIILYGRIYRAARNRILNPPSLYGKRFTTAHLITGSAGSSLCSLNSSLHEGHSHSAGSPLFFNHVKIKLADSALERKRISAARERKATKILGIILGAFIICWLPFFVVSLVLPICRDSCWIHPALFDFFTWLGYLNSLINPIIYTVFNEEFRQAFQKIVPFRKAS
5-hydroxytryptamine receptor 1B, sequence (P28222 whole entry): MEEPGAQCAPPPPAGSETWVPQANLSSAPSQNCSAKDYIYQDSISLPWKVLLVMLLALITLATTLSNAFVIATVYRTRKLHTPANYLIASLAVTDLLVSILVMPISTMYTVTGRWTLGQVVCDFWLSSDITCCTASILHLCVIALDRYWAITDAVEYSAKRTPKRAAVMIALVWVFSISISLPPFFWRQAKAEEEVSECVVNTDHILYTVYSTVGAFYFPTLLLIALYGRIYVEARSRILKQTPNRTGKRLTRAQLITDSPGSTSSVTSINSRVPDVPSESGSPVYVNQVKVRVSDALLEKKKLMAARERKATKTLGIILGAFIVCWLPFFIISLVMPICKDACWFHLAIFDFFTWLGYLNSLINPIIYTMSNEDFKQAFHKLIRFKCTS

The term Ki denotes a measure of affinity in units of concentration, obtained from inhibition or displacement. High values mean weaker binding, low ones tighter binding. As for `CN(C)CCc1c[nH]c2ccc(-c3cccs3)cc12`, the Ki is 23 nM in assay [1] and 0.7 nM in assay [2].

As for `OC[C@@H]1CCCN1CCc1c[nH]c2ccc(-c3cccs3)cc12`, the Ki in assay [1] was 113 nM; in assay [2], 8.2 nM.

Regarding `CC1CCC(C)N1CCc1c[nH]c2ccc(-c3cccs3)cc12` (configuration not stated), the Ki in assay [1] worked out at 70 nM; in assay [2] it was 2.5 nM.

Consider `CN(C)CCc1c[nH]c2ccc(-c3ccc(Cl)s3)cc12`, for which the Ki in assay [1] worked out at 303 nM; in assay [2], 7.6 nM.

Consider `COC[C@@H]1CCCN1CCc1c[nH]c2ccc(-c3cccs3)cc12`, for which the Ki in assay [1] worked out at 9.9 nM; in assay [2], 1.8 nM.

On to `Clc1ccc(-c2ccc3[nH]cc(CCN4CCCC4)c3c2)s1`, for which the results for the inhibitory constant (Ki) in assay [1] and in assay [2] were 476 nM and 31 nM, respectively.

Consider `c1csc(-c2ccc3[nH]cc(CCN4CCCC4)c3c2)c1`, for which the values for the Ki in assay [1] and in assay [2] were 714 nM and 19 nM, respectively.

For `C1=CCN(CCc2c[nH]c3ccc(-c4cccs4)cc23)C1`, the inhibition constant (Ki) was 107 nM in assay [1] and 4.5 nM in assay [2].

As to `NCCc1c[nH]c2ccc(-c3cccs3)cc12`, the Ki in assay [1] amounted to 32 nM; in assay [2] it was 1.7 nM.

As to `Cc1ccc(-c2ccc3[nH]cc(CCN(C)C)c3c2)s1`, the values for the Ki in assay [1] and in assay [2] were 133 nM and 3.2 nM, respectively.

Consider `CN(C)CCc1c[nH]c2ccc(-c3ccsc3)cc12`, for which the results for the Ki in assay [1] and in assay [2] were 17 nM and 0.5 nM, respectively.
